Columns and labels:
Assay type in all cases: in vivo
[1] = system: testicular cancer cell line HTB-104; assay: Tumor growth in kun ming mouse model of human testicular cancer (Example 6); details: mice injected s.c. with HTB-104 cells; 30 consecutive days of treatment; sacrificed on 31st day from tumor inoculation
Description: The following example illustrates the benefit of a biological composition of the invention in a kun ming mouse model of human testicular cancer. The growth of tumors in the mice was studied.
Numerous animal studies have reported the use of kun ming mouse models in the study of human testicular cancer. There is almost a 100% success rate for transplanting testicular tumor HTB-104 cells in mice. The testicular tumor cell line HTB-104 can be ordered from the American Type Culture Collection.
(§1) The biological composition comprising 10^8 cells per ml of activated and conditioned yeast cells of the strain Saccharomyces cerevisiae Hansen strain AS2.182 was prepared by the methods described in Section 5.1 and subsections therein.
The animals used for the experiments were kun ming mouse (obtainable from the Chinese Academy of Military Medical Sciences, Beijing, China). Only males 20 to 22 gram in body weight, 6 to […] old were used. […]
The mice received the biological compositions, untreated yeast cells, BLM or saline on the same day as the tumor cells were transplanted. […] On the 31st day from tumor inoculation, the mice were sacrificed and the weight of the mice and the weight of the tumor were determined by standard techniques.

[2] = system: testicular cancer cell line HTB-104; assay: Survival in kun ming mouse model of human testicular cancer (Example 7); details: for Number of live animals remaining in the groups after 30 days of treatment: 30 mice per group
Experimental: The following example illustrates the benefit of a biological composition of the invention in a kun ming mouse model of human testicular cancer. The survival time of rats after tumor injection and treatment was studied.
The biological composition comprising 10^8 cells per ml of activated and conditioned yeast cells of the strain Saccharomyces cerevisiae Hansen strain AS2. 182 was prepared by the methods described in Section 5.1 and subsections therein.
The animals were prepared in a similar manner as described in Section 6.1.
(§2) After injection with HTB-104 cells, the mice were divided into 4 experimental groups of ten mice per group and one control group. The four experimental groups were triplicated (i.e., using a total of 120 mice in the experimental groups). In group 2AY, the mice received 0.5 ml of the biological composition once per day. In group 2NY, the mice received 0.5 ml of the untreated yeast cells once per day. In group 2BLM, the mice were injected subcutaneously with 0.8 mg of bleomycin (BLM) per kg body weight per day. In group 2CK1, the mice received 0.5 ml of physiological saline once per day.
The mice received the biological compositions, untreated yeast cells, BLM or saline on the same day as the tumor cells were transplanted. The mice in group 2CK2 also started receiving saline on the same day as the other four groups. The biological compositions, untreated yeast cells or saline were administered orally by a feeding tube and the BLM by subcutaneous injection for 30 consecutive days. The mice were observed over 6 months from the day of tumor inoculation and survival was recorded. The weight of the mice and the weight of the tumor were determined by standard techniques.

[3] = system: testicular cancer cell line CRL-1973; assay: Tumor growth in Wistar rat model of human testicular cancer (Example 8); details: rats injected s.c. with CRL-1973 cells; 30 consecutive days of treatment; sacrificed on 31st day from tumor inoculation
Description: The following example illustrates the benefit of a biological composition of the invention in a Wistar rat model of human testicular cancer. The growth of the tumor in the rats was studied.
Numerous animal studies have reported the use of Wistar rat models in the study of human testicular cancer. There is very high success rate for transplanting testicular tumor CRL-1973 cells in rats. The testicular tumor cell line CRL-1973 can be ordered from the American Type Culture Collection.
as §1
The animals used for the experiments were male Wistar rats (obtainable from the Chinese Academy of Military Medical Sciences, Beijing, China). About 2×10^7 viable tumor cells of the testicular cancer cell line CRL-1973 (obtainable from the Cancer Institute, Chinese Academy of Medical Sciences, Beijing, China) in about 0.2 ml culture suspension was injected subcutaneously into the animals. […]
The rats received the biological compositions, untreated yeast cells, VLB or saline on the same day as the tumor cells were transplanted. […] The weight of the rats and the weight of the tumor were determined by standard techniques.

[4] = system: testicular cancer cell line CRL-1973; assay: Survival in Wistar rat model of human testicular cancer (Example 9); details: for Number of live animals remaining in the groups after 30 days of treatment: 30 rats per group
Experimental: The survival time of mice after tumor injection and treatment was studied.
as §1
The animals were prepared in a similar manner as described in Section 8.1.
as §2, with “CRL-1973” for “HTB-104”, “rats” for “mice”, “(ie.,” for “(i.e.,”, “1.2” for “0.5”, “In group 2BLM, the mice were injected subcutaneously with 0.8 mg of bleomycin (BLM) per kg body weight per day.” left out
The rats received the biological compositions, untreated yeast cells, VLB or saline on the same day as the tumor cells were transplanted. The rats in group 2CK2 also started receiving saline on the same day as the other four groups. The biological compositions, untreated yeast cells and saline were administered orally by a feeding tube and the VLB by intravenous injection for 30 consecutive days. The mice were observed over 6 months from the day of tumor inoculation and survival was recorded. The weight of the mice and the weight of the tumor were determined by standard techniques.

[5] = 0 month after cessation of treatment
[6] = 1 month after cessation of treatment
[7] = 2 months after cessation of treatment
[8] = 3 months after cessation of treatment
[9] = 4 months after cessation of treatment
[10] = 5 months after cessation of treatment
[11] = 6 months after cessation of treatment

Compound	mean weight of tumor nodules and standard deviation [1] [mg]	Number of live animals remaining in the groups after 30 days of treatment [2, 5]	Number of live animals remaining in the groups after 30 days of treatment [2, 6]	Number of live animals remaining in the groups after 30 days of treatment [2, 7]	Number of live animals remaining in the groups after 30 days of treatment [2, 8]	Number of live animals remaining in the groups after 30 days of treatment [2, 9]	Number of live animals remaining in the groups after 30 days of treatment [2, 10]	Number of live animals remaining in the groups after 30 days of treatment [2, 11]	death of all animals, time from injection of tumor cells ([2]; mice bearing HTB-104 cells, 30 days of treatment)	mean weight of tumor nodules and standard deviation ([2]; mice that survived, observed over 6 months from tumor inoculation)	mean weight of tumor nodules and standard deviation [3] [g]	Number of live animals remaining in the groups after 30 days of treatment [4, 5]	Number of live animals remaining in the groups after 30 days of treatment [4, 6]	Number of live animals remaining in the groups after 30 days of treatment [4, 7]	Number of live animals remaining in the groups after 30 days of treatment [4, 8]	Number of live animals remaining in the groups after 30 days of treatment [4, 9]	Number of live animals remaining in the groups after 30 days of treatment [4, 10]	Number of live animals remaining in the groups after 30 days of treatment [4, 11]	death of all animals, time from injection of tumor cells ([4]; rats bearing CRL-1973 cells, 30 days of treatment)	mean weight of tumor nodules and standard deviation ([4]; rats that survived, observed over 6 months from tumor inoculation)
bleomycin [BLM]	1.13 ± 0.65	30	27	16	0	0	0	0	all died after three months	all animals dead	–	–	–	–	–	–	–	–	–	–
CC[C@]1(O)C[C@@H]2CN(CCc3c([nH]c4ccccc34)[C@@](C(=O)OC)(c3cc4c(cc3OC)N(C)[C@H]3[C@@](O)(C(=O)OC)[C@H](OC(C)=O)[C@]5(CC)C=CCN6CC[C@]43[C@@H]65)C2)C1 [VLB, vinblastine]	–	–	–	–	–	–	–	–	–	–	2.67 ± 2.65	30	30	22	9	1	0	0	all died after five months	all animals dead

— patent publication US20060051321A1, “Biological compositions and methods for treatment of testicular cancer” (Ultra Biotech Limited, priority 2003, published 2006)
